Results from ChEMBL document CHEMBL2034905, “Synthesis of benzimidazolyl-1,3,4-oxadiazol-2ylthio-N-phenyl (benzothiazolyl) acetamides as antibacterial, antifungal and antituberculosis agents” (Eur J Med Chem, 2012).
In brackets after ≈: the same amount, converted by molar mass.

Experiments:
[1] = tested on: Mycobacterium tuberculosis; assay: Antituberculosis activity against Mycobacterium tuberculosis H37Rv by BACTEC MGIT method; type: functional
[2] = tested on: Klebsiella pneumoniae; assay: Antibacterial activity against Klebsiella pneumoniae MTCC 109 at 100 ug/disc by paper disc diffusion technique; type: functional; conditions: read-out: IZ
[3] = tested on: Shigella flexneri; assay: Antibacterial activity against Shigella flexneri MTCC 1457 by agar streak dilution method; type: functional
[4] = tested on: Aspergillus clavatus; assay: Antifungal activity against Aspergillus clavatus MTCC 1323 at 100 ug/disc by paper disc diffusion technique; type: functional; conditions: read-out: IZ
[5] = tested on: Pseudomonas aeruginosa; assay: Antibacterial activity against Pseudomonas aeruginosa MTCC 741 by agar streak dilution method; type: functional
[6] = tested on: Aspergillus fumigatus; assay: Antifungal activity against Aspergillus fumigatus MTCC 343 by agar streak dilution method; type: functional
[7] = tested on: Candida albicans; assay: Antifungal activity against Candida albicans MTCC 183 by agar streak dilution method; type: functional
[8] = tested on: Klebsiella pneumoniae; assay: Antibacterial activity against Klebsiella pneumoniae MTCC 109 by agar streak dilution method; type: functional
[9] = tested on: Proteus vulgaris; assay: Antibacterial activity against Proteus vulgaris MTCC 1771 by agar streak dilution method; type: functional
[10] = tested on: Staphylococcus aureus; assay: Antibacterial activity against Staphylococcus aureus MTCC 96 by agar streak dilution method; type: functional
[11] = tested on: Escherichia coli; assay: Antibacterial activity against Escherichia coli MTCC 739 by agar streak dilution method; type: functional
[12] = tested on: Staphylococcus aureus; assay: Antibacterial activity against Staphylococcus aureus MTCC 96 at 100 ug/disc by paper disc diffusion technique; type: functional; conditions: read-out: IZ
[13] = Lipophilicity, log P of the compound; type: physicochemical; conditions: octanol/water
[14] = tested on: Aspergillus fumigatus; assay: Antifungal activity against Aspergillus fumigatus MTCC 343 at 100 ug/disc by paper disc diffusion technique; type: functional; conditions: read-out: IZ
[15] = tested on: Mycobacterium tuberculosis; assay: Antituberculosis activity against Mycobacterium tuberculosis H37Rv by Lowenstein-Jensen method; type: functional
[16] = tested on: Escherichia coli; assay: Antibacterial activity against Escherichia coli MTCC 739 at 100 ug/disc by paper disc diffusion technique; type: functional; conditions: read-out: IZ
[17] = tested on: Aspergillus niger; assay: Antifungal activity against Aspergillus niger MTCC 282 at 100 ug/disc by paper disc diffusion technique; type: functional; conditions: read-out: IZ
[18] = tested on: Salmonella typhi; assay: Antibacterial activity against Salmonella typhi MTCC 733 by agar streak dilution method; type: functional, Salmonella enterica subsp. enterica serovar Typhi; conditions: Salmonella enterica
[19] = tested on: Aspergillus niger; assay: Antifungal activity against Aspergillus niger MTCC 282 by agar streak dilution method; type: functional
[20] = tested on: Pseudomonas aeruginosa; assay: Antibacterial activity against Pseudomonas aeruginosa MTCC 741 at 100 ug/disc by paper disc diffusion technique; type: functional; conditions: read-out: IZ
[21] = tested on: Bacillus cereus; assay: Antibacterial activity against Bacillus cereus MTCC 430 at 100 ug/disc by paper disc diffusion technique; type: functional; conditions: read-out: IZ
[22] = tested on: Aspergillus clavatus; assay: Antifungal activity against Aspergillus clavatus MTCC 1323 by agar streak dilution method; type: functional
[23] = tested on: Proteus vulgaris; assay: Antibacterial activity against Proteus vulgaris MTCC 1771 at 100 ug/disc by paper disc diffusion technique; type: functional; conditions: read-out: IZ
[24] = tested on: Salmonella typhi; assay: Antibacterial activity against Salmonella typhi MTCC 733 at 100 ug/disc by paper disc diffusion technique; type: functional, Salmonella enterica subsp. enterica serovar Typhi; conditions: Salmonella enterica, read-out: IZ
[25] = tested on: Bacillus cereus; assay: Antibacterial activity against Bacillus cereus MTCC 430 by agar streak dilution method; type: functional
[26] = tested on: Shigella flexneri; assay: Antibacterial activity against Shigella flexneri MTCC 1457 at 100 ug/disc by paper disc diffusion technique; type: functional; conditions: read-out: IZ
[27] = tested on: Candida albicans; assay: Antifungal activity against Candida albicans MTCC 183 at 100 ug/disc by paper disc diffusion technique; type: functional; conditions: read-out: IZ
[28] = tested on: Mycobacterium tuberculosis; assay: Antituberculosis activity against Mycobacterium tuberculosis H37Rv at 6.25 ug/ml by Lowenstein-Jensen method; type: functional

Row | Structure (SMILES) | MIC [1] [µg/mL] | zone of inhibition at 100 µg/disc [2] [mm] | MIC [3] [µg/mL] | zone of inhibition at 100 µg/disc [4] [mm] | MIC [5] [µg/mL] | MIC [6] [µg/mL] | MIC [7] [µg/mL] | MIC [8] [µg/mL] | MIC [9] [µg/mL] | MIC [10] [µg/mL] | MIC [11] [µg/mL] | zone of inhibition at 100 µg/disc [12] [mm] | logP [13] | zone of inhibition at 100 µg/disc [14] [mm] | MIC [15] [µg/mL] | zone of inhibition at 100 µg/disc [16] [mm] | zone of inhibition at 100 µg/disc [17] [mm] | MIC [18] [µg/mL] | MIC [19] [µg/mL] | zone of inhibition at 100 µg/disc [20] [mm] | further results
1 | O=C(CSc1nnc(Cn2cnc3ccccc32)o1)Nc1nc2ccccc2s1 | > 6.25 | < 10 | 100 (≈ 237 µM) | < 10 | 100 (≈ 237 µM) | 100 (≈ 237 µM) | 100 (≈ 237 µM) | 100 (≈ 237 µM) | 100 (≈ 237 µM) | 50 (≈ 118 µM) | 100 (≈ 237 µM) | 15 | 3.69 | < 10 | 500 (≈ 1180 µM) | 15 | < 10 | 100 (≈ 237 µM) | 100 (≈ 237 µM) | 12 | zone of inhibition at 100 µg/disc [21]: 14 mm; MIC [22]: 100 µg/mL (≈ 237 µM); zone of inhibition at 100 µg/disc [23]: 17 mm; zone of inhibition at 100 µg/disc [24]: < 10 mm; MIC [25]: 100 µg/mL (≈ 237 µM); zone of inhibition at 100 µg/disc [26]: 13 mm; zone of inhibition at 100 µg/disc [27]: 13 mm; inhibition at 6.25 µg/mL [28]: 94%
2 | O=C(CSc1nnc(Cn2cnc3ccccc32)o1)Nc1nc2ccc(Br)cc2s1 | > 6.25 | 14 | 12.5 (≈ 24.9 µM) | 20 | 25 (≈ 49.9 µM) | 50 (≈ 99.7 µM) | 100 (≈ 199 µM) | 100 (≈ 199 µM) | 50 (≈ 99.7 µM) | 3.12 (≈ 6.22 µM) | 50 (≈ 99.7 µM) | 26 | 4.52 | 21 | 25 (≈ 49.9 µM) | 19 | 19 | 25 (≈ 49.9 µM) | 50 (≈ 99.7 µM) | 23 | zone of inhibition at 100 µg/disc [21]: 24 mm; MIC [22]: 50 µg/mL (≈ 99.7 µM); zone of inhibition at 100 µg/disc [23]: 20 mm; zone of inhibition at 100 µg/disc [24]: 24 mm; MIC [25]: 25 µg/mL (≈ 49.9 µM); zone of inhibition at 100 µg/disc [26]: 23 mm; zone of inhibition at 100 µg/disc [27]: 17 mm; inhibition at 6.25 µg/mL [28]: 99%
3 | O=C(CSc1nnc(Cn2cnc3ccccc32)o1)Nc1nc2ccc(Cl)cc2s1 | > 6.25 | 20 | 6.25 (≈ 13.7 µM) | 15 | 25 (≈ 54.7 µM) | 100 (≈ 219 µM) | 100 (≈ 219 µM) | 50 (≈ 109 µM) | 50 (≈ 109 µM) | 12.5 (≈ 27.4 µM) | 50 (≈ 109 µM) | 22 | 4.25 | 13 | 62.5 (≈ 137 µM) | 20 | 16 | 50 (≈ 109 µM) | 100 (≈ 219 µM) | 23 | zone of inhibition at 100 µg/disc [21]: 27 mm; MIC [22]: 100 µg/mL (≈ 219 µM); zone of inhibition at 100 µg/disc [23]: 20 mm; zone of inhibition at 100 µg/disc [24]: 22 mm; MIC [25]: 6.25 µg/mL (≈ 13.7 µM); zone of inhibition at 100 µg/disc [26]: 25 mm; zone of inhibition at 100 µg/disc [27]: 14 mm; inhibition at 6.25 µg/mL [28]: 97%
4 | CC(=O)Nc1ccc2nc(NC(=O)CSc3nnc(Cn4cnc5ccccc54)o3)sc2c1 | > 6.25 | 20 | 100 (≈ 209 µM) | 23 | 100 (≈ 209 µM) | 100 (≈ 209 µM) | 50 (≈ 104 µM) | 50 (≈ 104 µM) | 12.5 (≈ 26.1 µM) | 50 (≈ 104 µM) | 50 (≈ 104 µM) | 19 | 2.6 | < 10 | 50 (≈ 104 µM) | 20 | 24 | 100 (≈ 209 µM) | 12.5 (≈ 26.1 µM) | < 10 | zone of inhibition at 100 µg/disc [21]: 16 mm; MIC [22]: 50 µg/mL (≈ 104 µM); zone of inhibition at 100 µg/disc [23]: 24 mm; zone of inhibition at 100 µg/disc [24]: 16 mm; MIC [25]: 100 µg/mL (≈ 209 µM); zone of inhibition at 100 µg/disc [26]: 16 mm; zone of inhibition at 100 µg/disc [27]: 23 mm; inhibition at 6.25 µg/mL [28]: 98%
